Test results taken from patent publication US20150087045A1, “CRYSTAL STRUCTURE OF HCV […] AND METHODS OF USE” (GILEAD P[…], priority 2012, published 2015).
“And” between values parts separate entries of the source, which are not always exact repeats. Equal values may be shown once.

Key:
[1] = Thermofluor analysis: melting temperature of polymerase constructs; format: physicochemical; details: polymerase itself
Procedure: Thermofluor analysis of HCV polymerases 1bWT, 1bΔ8, 2aWT, and 2aΔ8 was performed as previously described (36, 37) in the absence and presence of symmetrical primer-template pairs or fused hairpin primer-template RNA as described in Example 2.

[2] = test system: genotype 1b (−) IRES RNA template; experiment: De novo RNA synthesis activity of HCV NS5B polymerase constructs; format: biochemical, hepatitis C virus; details: 2a Δ8 with Gly-Gly linker compared to wild-type 2a
Procedure: HCV activity assays were performed in a 200 μL mixture containing 1 μM of the four natural ribonucleotides, [α-^32P]UTP, 20 ng/μL of genotype 1b (−) IRES RNA template, 1 unit/μL of SUPERase.In (Ambion, Austin, Tex.), 40 ng/μL of NS5B, 5 mM MgCl2, and 2 mM DTT in 50 mM HEPES buffer (pH 7.5). The reaction was incubated at 27° C. and 20 μL aliquots were taken at the desired time points and quenched by mixing in 80 μL of stop solution (12.5 mM EDTA, 2.25 M NaCl, and 225 mM sodium citrate).

[3] = biological target: T1, HCV NS5B polymerase 1b WT (Hepatitis C virus genotype 1b, UniProt P26663, E2505Q/E2506Q/K2533R/L2466Q/R2963Q); experiment: Inhibition assay (chain termination) with construct 1b WT; format: biochemical, hepatitis C virus genotype 1b BK isolate; details: one value or range given for both 1b WT and 1b Δ8
T1 construct: 1b WT; made in house; host or cells: E. coli Rosetta DE3
Procedure: For constructs 1bWT and 1bΔ8, inhibition assays were performed in a 120 μL mixture containing 5 μM of the four natural ribonucleotides, [α-^32P]UTP, 20 ng/μL of genotype 1b (−) IRES RNA template, 1 unit/μL of SUPERase.In (Ambion, Austin, Tex.), 40 ng/μL of NS5B, 5 mM MgCl2, and 2 mM DTT in 50 mM HEPES buffer (pH 7.5). The reaction was incubated at 27° C. and a 20 μL aliquot was taken at 0, 30, 60, 90, and 120 minute time points and quenched by mixing with 80 μL of stop solution (12.5 mM EDTA, 2.25 M NaCl, and 225 mM sodium citrate). The radioactive RNA products were separated from unreacted substrates using a Hybond N+ membrane (GE Healthcare) as described previously (FIG. 2). The products were visualized and quantified using a phosphorimager. The reaction rates and IC 50 values were calculated using GraphFit.

[4] = biological target: T2, HCV NS5B polymerase 1b Δ8 (Hepatitis C virus genotype 1b, UniProt P26663, DEL2863-2870/E2505Q/E2506Q/K2533R/L2466Q/R2963Q/S2872G/Y2871G); experiment: Inhibition assay (chain termination) with construct 1b Δ8; format: biochemical, hepatitis C virus genotype 1b BK isolate; details: for IC50: one value or range given for both 1b WT and 1b Δ8
T2 construct: 1bΔ8; made in house; host or cells: E. coli Rosetta DE3

HCV polymerase 1b S282T [5] = biological target: T3, HCV polymerase 1b S282T (Hepatitis C virus genotype 1b, UniProt P26663, E2505Q/E2506Q/K2533R/L2466Q/R2963Q/S2701T); experiment: Inhibition assay (chain termination) with construct 1b S282T; format: biochemical, hepatitis C virus genotype 1b BK isolate
T3 construct: 1b S282T; made in house; host or cells: E. coli Rosetta DE3

HCV polymerase 1b S282T [6] = experiment: as above; format: biochemical, hepatitis C virus genotype 1b BK isolate; details: upon introduction of S282T into 1b WT
[7] = biological target: T4, HCV polymerase 1b Δ8 S282T (Hepatitis C virus genotype 1b, UniProt P26663, DEL2863-2870/E2505Q/E2506Q/K2533R/L2466Q/R2963Q/S2701T/S2872G/Y2871G); experiment: Inhibition assay (chain termination) with construct 1b Δ8 S282T; format: biochemical, hepatitis C virus genotype 1b BK isolate
T4 construct: 1bΔ8 S282T; made in house; host or cells: E. coli Rosetta DE3

[8] = test system: HCV polymerase 1b Δ8 S282T; experiment: as above; format: biochemical, hepatitis C virus genotype 1b BK isolate; details: upon introduction of S282T into 1b Δ8
[9] = biological target: T5, HCV NS5B polymerase 2a WT (Hepatitis C virus genotype 2a, UniProt Q99IB8, E2528Q/E2529Q); experiment: Inhibition assay (chain termination) with construct 2a WT; format: biochemical, hepatitis C virus genotype 2a JFH1 isolate; details: 60 minutes incubation, 27° C.
T5 construct: 2a WT; made in house; host or cells: E. coli Rosetta DE3
Procedure: (§1) For constructs 2aWT and 2aΔ8, inhibition assays were performed in a 20 μL mixture containing varying concentrations of PSI-352666 or 2′-C-MeGTP, 5 μM of the four natural ribonucleotides, [α-^32P]UTP, 20 ng/μL of genotype 1b (−) IRES RNA template, 1 unit/μL of SUPERase.In (Ambion, Austin, Tex.), 40 ng/μL of NS5B, 5 mM MgCl2, and 2 mM DTT in 50 mM HEPES buffer (pH 7.5).
(§2) The reaction was incubated at 27° C. and quenched by adding 80 μL of stop solution after 60 minutes incubation with 2aWT or 15 minutes incubation with 2aΔ8. The radioactive RNA products were separated from unreacted substrates using a Hybond N+ membrane (GE Healthcare) as described previously^28. The products were visualized and quantified using a phosphorimager. The reaction rates and the IC50 values were calculated using GraphFit (Erithacus Software, Horley, Surrey, UK).

[10] = biological target: T6, HCV NS5B polymerase 2a Δ8 (Hepatitis C virus genotype 2a, UniProt Q99IB8, DEL2886-2893/E2528Q/E2529Q/S2895G/Y2894G); experiment: Inhibition assay (chain termination) with construct 2a Δ8; format: biochemical, hepatitis C virus genotype 2a JFH1 isolate; details: 15 minutes incubation, 27° C.
T6 construct: 2aΔ8; made in house; host or cells: E. coli Rosetta DE3
Procedure: as §1, §2

| Compound | melting temperature (Tm) [1] [°C] | de novo RNA synthesis activity compared to 2a WT [2] [fold] | IC50 [3] [µM] | IC50 [4] [µM] | IC50 (HCV polymerase 1b S282T [5]) [µM] | increase in IC50 (HCV polymerase 1b S282T [6]) [fold] | IC50 [7] [µM] | increase in IC50 [8] [fold] | IC50 [9] [µM] | IC50 [10] | chain termination: elongation of the terminated product (*GGCX) ([4]; in the presence of the next correct incoming nucleotide (ATP), 0-60 min) |
| --- | --- | --- | --- | --- | --- | --- | --- | --- | --- | --- | --- |
| 2a WT: HCV polymerase genotype 2a JFH-1 construct, SEQ ID NO:3, C-terminal 21 amino acids replaced by hexahistidine tag, E86Q and E87Q | ~41 | – | – | – | – | – | – | – | – | – | – |
| 2a Δ8: 2a WT with the β-hairpin replaced by a Gly-Gly linker, SEQ ID NO:8 | ~35 | > 100 | – | – | – | – | – | – | – | – | – |
| C[C@@]1(O)[C@H](O)[C@@H](COP(=O)(O)OP(=O)(O)OP(=O)(O)O)O[C@H]1n1cnc2c(=O)[nH]c(N)nc21 [2′-C-MeGTP] | – | – | 7 to 13 | 7 to 13 | > 100 | > 10 | > 100 | > 10 | – | – | – |
| C[C@@]1(F)[C@H](O)[C@@H](COP(=O)(O)OP(=O)(O)OP(=O)(O)O)O[C@H]1n1cnc2c(=O)[nH]c(N)nc21 [PSI-352666] | – | – | 4 | 4 | 9 to 14 | ~2.5 | 9 to 14 | ~2.5 | 6.05 ± 0.82 | 6 µM and 6.41 µM | not further elongated |
